# Columns and labels:
# Test in all cases: Kinase Hotspot radiolabel assay
# Assay type in all cases: biochemical
# Settings in all cases: read-out: % Residual Activity
# FAK/PTK2 = molecular target: T1, FAK/PTK2 (Homo sapiens, UniProt Q05397)
# T1 construct: purchased Reaction Biology Corporation (Kinase HotSpot)
# How it was run: (§1)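 Profiled at 1 µM compound within a 369-kinase panel using a radiolabel Hotspot format. Ki values were then determined for kinases showing greater than 90% inhibition.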
# CAMK1b = molecular target: T2, CAMK1b (Homo sapiens, UniProt Q6P2M8)
# T2 construct: purchased Reaction Biology Corporation (Kinase HotSpot)
# How it was run: as §1
# FLT4/VEGFR3 = molecular target: T3, FLT4/VEGFR3 (Homo sapiens, UniProt P35916)
# T3 construct: purchased Reaction Biology Corporation (Kinase HotSpot)
# How it was run: as §1
# SIK2 = molecular target: T4, SIK2 (Homo sapiens, UniProt Q9H0K1)
# T4 construct: purchased Reaction Biology Corporation (Kinase HotSpot)
# How it was run: as §1
# LIMK1 = molecular target: T5, LIMK1 (Homo sapiens, UniProt P53667)
# T5 construct: purchased Reaction Biology Corporation (Kinase HotSpot)
# How it was run: as §1
# CAMK2a = molecular target: T6, CAMK2a (Homo sapiens, UniProt Q9UQM7)
# T6 construct: purchased Reaction Biology Corporation (Kinase HotSpot)
# How it was run: as §1
# CLK3 = molecular target: T7, CLK3 (Homo sapiens, UniProt P49761)
# T7 construct: purchased Reaction Biology Corporation (Kinase HotSpot)
# How it was run: as §1
# SLK/STK2 = molecular target: T8, SLK/STK2 (Homo sapiens, UniProt Q9H2G2)
# T8 construct: purchased Reaction Biology Corporation (Kinase HotSpot)
# How it was run: as §1
# PKCiota = molecular target: T9, PKCiota (Homo sapiens, UniProt P41743)
# T9 construct: purchased Reaction Biology Corporation (Kinase HotSpot)
# How it was run: as §1
# CLK2 = molecular target: T10, CLK2 (Homo sapiens, UniProt P49760)
# T10 construct: purchased Reaction Biology Corporation (Kinase HotSpot)
# How it was run: as §1
# ERK2/MAPK1 = molecular target: T11, ERK2/MAPK1 (Homo sapiens, UniProt P28482)
# T11 construct: purchased Reaction Biology Corporation (Kinase HotSpot)
# How it was run: as §1
# Aurora B = molecular target: T12, Aurora B (Homo sapiens, UniProt Q96GD4)
# T12 construct: purchased Reaction Biology Corporation (Kinase HotSpot)
# How it was run: as §1
# CDK4/cyclin D3 = molecular target: T13, CDK4/cyclin D3 (Homo sapiens, UniProt P11802)
# T13 construct: purchased Reaction Biology Corporation (Kinase HotSpot)
# How it was run: as §1
# NLK = molecular target: T14, NLK (Homo sapiens, UniProt Q9UBE8)
# T14 construct: purchased Reaction Biology Corporation (Kinase HotSpot)
# How it was run: as §1
# CK2a2 = molecular target: T15, CK2a2 (Homo sapiens, UniProt P19784)
# T15 construct: purchased Reaction Biology Corporation (Kinase HotSpot)
# How it was run: as §1
# CDC7/DBF4 = molecular target: T16, CDC7/DBF4 (Homo sapiens, UniProt O00311)
# T16 construct: purchased Reaction Biology Corporation (Kinase HotSpot)
# How it was run: as §1
# PKAcb = molecular target: T17, PKAcb (Homo sapiens, UniProt P22694)
# T17 construct: purchased Reaction Biology Corporation (Kinase HotSpot)
# How it was run: as §1
# FGR = molecular target: T18, FGR (Homo sapiens, UniProt P09769)
# T18 construct: purchased Reaction Biology Corporation (Kinase HotSpot)
# How it was run: as §1
# DAPK1 = molecular target: T19, DAPK1 (Homo sapiens, UniProt P53355)
# T19 construct: purchased Reaction Biology Corporation (Kinase HotSpot)
# How it was run: as §1
# LCK2/ICK = molecular target: T20, LCK2/ICK (Homo sapiens, UniProt Q9UPZ9)
# T20 construct: purchased Reaction Biology Corporation (Kinase HotSpot)
# How it was run: as §1
# RSK3 = molecular target: T21, RSK3 (Homo sapiens, UniProt Q15349)
# T21 construct: purchased Reaction Biology Corporation (Kinase HotSpot)
# How it was run: as §1
# ERN2/IRE2 = molecular target: T22, ERN2/IRE2 (Homo sapiens, UniProt Q76MJ5)
# T22 construct: purchased Reaction Biology Corporation (Kinase HotSpot)
# How it was run: as §1
# MKK4 = molecular target: T23, MKK4 (Homo sapiens, UniProt P45985)
# T23 construct: purchased Reaction Biology Corporation (Kinase HotSpot)
# How it was run: as §1
# STK39/STLK3 = molecular target: T24, STK39/STLK3 (Homo sapiens, UniProt Q9UEW8)
# T24 construct: purchased Reaction Biology Corporation (Kinase HotSpot)
# How it was run: as §1
# DYRK4 = molecular target: T25, DYRK4 (Homo sapiens, UniProt Q9NR20)
# T25 construct: purchased Reaction Biology Corporation (Kinase HotSpot)
# How it was run: as §1
# OSR1/OXSR1 = molecular target: T26, OSR1/OXSR1 (Homo sapiens, UniProt O95747)
# T26 construct: purchased Reaction Biology Corporation (Kinase HotSpot)
# How it was run: as §1
# KSR2 = molecular target: T27, KSR2 (Homo sapiens, UniProt Q6VAB6)
# T27 construct: purchased Reaction Biology Corporation (Kinase HotSpot)
# How it was run: as §1
# LATS2 = molecular target: T28, LATS2 (Homo sapiens, UniProt Q9NRM7)
# T28 construct: purchased Reaction Biology Corporation (Kinase HotSpot)
# How it was run: as §1
# FGFR1 = molecular target: T29, FGFR1 (Homo sapiens, UniProt P11362)
# T29 construct: purchased Reaction Biology Corporation (Kinase HotSpot)
# How it was run: as §1
# PKG1a = molecular target: T30, PKG1a (Homo sapiens, UniProt Q13976)
# T30 construct: purchased Reaction Biology Corporation (Kinase HotSpot)
# How it was run: as §1
# T5 sequence (P53667 whole entry): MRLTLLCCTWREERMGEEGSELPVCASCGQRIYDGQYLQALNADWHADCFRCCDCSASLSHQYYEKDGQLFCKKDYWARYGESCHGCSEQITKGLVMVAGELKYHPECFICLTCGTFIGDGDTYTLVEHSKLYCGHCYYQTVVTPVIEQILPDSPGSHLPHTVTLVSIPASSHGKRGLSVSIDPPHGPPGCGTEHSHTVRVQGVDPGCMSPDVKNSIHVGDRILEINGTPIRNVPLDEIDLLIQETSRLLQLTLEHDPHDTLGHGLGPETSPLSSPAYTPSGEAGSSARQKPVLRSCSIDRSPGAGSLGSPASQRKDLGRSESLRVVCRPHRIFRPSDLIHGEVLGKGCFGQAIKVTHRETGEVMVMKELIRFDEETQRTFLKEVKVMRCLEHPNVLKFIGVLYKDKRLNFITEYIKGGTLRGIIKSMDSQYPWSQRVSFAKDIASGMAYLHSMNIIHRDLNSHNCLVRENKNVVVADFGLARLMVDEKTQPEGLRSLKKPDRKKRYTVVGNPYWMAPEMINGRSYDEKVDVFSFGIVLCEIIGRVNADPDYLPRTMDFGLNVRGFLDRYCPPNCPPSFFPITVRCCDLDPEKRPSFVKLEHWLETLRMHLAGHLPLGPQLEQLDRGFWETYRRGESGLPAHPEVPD
# T11 sequence (P28482 whole entry): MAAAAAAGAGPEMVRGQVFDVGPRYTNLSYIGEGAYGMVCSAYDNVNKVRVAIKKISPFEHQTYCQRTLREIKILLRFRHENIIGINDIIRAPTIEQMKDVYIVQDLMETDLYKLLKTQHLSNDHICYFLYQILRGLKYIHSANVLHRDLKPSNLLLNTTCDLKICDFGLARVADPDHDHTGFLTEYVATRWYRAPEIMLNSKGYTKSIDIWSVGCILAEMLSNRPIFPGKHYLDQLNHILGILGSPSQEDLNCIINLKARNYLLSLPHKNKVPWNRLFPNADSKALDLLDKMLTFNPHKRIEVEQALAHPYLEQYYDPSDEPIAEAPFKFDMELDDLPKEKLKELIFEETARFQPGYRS
# T18 sequence (P09769 whole entry): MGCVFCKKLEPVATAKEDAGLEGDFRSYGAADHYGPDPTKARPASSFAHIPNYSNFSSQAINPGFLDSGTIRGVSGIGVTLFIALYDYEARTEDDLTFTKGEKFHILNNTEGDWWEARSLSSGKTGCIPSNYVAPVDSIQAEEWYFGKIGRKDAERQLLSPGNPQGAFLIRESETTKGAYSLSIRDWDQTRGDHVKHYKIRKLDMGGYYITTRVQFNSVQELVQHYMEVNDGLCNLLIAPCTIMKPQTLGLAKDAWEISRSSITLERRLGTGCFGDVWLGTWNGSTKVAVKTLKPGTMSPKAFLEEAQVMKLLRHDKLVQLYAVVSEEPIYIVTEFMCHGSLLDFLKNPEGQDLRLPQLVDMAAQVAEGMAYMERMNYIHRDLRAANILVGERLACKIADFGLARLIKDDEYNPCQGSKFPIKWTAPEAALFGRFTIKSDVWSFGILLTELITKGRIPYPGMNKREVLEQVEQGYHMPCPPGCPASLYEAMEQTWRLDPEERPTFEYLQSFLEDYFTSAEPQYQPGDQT
# T8 sequence (Q9H2G2 whole entry): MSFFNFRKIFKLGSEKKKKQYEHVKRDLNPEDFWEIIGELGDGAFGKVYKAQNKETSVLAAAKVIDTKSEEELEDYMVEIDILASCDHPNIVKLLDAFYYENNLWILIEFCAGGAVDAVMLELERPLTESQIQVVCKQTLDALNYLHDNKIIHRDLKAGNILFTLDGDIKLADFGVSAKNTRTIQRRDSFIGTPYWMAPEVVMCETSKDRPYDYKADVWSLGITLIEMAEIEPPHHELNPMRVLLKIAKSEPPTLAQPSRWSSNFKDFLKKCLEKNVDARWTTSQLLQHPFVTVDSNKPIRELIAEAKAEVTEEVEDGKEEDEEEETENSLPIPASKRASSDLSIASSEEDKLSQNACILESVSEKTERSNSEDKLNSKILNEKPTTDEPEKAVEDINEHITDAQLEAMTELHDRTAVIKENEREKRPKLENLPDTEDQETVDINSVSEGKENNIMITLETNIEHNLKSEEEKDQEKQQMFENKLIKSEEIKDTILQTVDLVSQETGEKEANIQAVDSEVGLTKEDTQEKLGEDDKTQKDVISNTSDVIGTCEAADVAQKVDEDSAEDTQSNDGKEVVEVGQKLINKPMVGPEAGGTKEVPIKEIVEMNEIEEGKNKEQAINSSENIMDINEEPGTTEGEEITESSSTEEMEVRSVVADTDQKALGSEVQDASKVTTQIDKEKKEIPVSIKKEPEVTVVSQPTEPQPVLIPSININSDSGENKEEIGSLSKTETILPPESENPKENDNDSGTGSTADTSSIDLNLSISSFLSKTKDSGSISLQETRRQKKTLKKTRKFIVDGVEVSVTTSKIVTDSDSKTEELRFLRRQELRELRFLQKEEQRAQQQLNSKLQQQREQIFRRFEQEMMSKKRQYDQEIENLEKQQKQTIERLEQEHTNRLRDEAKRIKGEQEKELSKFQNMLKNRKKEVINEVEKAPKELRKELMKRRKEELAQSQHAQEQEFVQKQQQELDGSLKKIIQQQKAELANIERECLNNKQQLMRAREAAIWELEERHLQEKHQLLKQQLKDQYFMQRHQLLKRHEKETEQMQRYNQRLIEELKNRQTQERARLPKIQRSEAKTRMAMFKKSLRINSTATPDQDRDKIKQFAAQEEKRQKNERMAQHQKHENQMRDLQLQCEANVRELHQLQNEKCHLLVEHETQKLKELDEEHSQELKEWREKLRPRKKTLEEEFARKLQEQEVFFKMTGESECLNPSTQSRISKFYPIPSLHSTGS
# T15 sequence (P19784 whole entry): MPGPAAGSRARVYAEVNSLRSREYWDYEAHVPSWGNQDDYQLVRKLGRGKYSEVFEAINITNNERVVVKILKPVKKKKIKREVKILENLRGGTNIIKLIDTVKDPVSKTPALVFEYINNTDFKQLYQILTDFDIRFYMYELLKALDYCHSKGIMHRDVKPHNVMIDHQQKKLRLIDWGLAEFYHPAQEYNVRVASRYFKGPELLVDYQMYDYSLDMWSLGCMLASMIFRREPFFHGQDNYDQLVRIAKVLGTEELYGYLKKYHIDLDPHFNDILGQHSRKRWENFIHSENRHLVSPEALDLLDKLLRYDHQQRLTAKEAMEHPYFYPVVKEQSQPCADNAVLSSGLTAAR
# T4 sequence (Q9H0K1 whole entry): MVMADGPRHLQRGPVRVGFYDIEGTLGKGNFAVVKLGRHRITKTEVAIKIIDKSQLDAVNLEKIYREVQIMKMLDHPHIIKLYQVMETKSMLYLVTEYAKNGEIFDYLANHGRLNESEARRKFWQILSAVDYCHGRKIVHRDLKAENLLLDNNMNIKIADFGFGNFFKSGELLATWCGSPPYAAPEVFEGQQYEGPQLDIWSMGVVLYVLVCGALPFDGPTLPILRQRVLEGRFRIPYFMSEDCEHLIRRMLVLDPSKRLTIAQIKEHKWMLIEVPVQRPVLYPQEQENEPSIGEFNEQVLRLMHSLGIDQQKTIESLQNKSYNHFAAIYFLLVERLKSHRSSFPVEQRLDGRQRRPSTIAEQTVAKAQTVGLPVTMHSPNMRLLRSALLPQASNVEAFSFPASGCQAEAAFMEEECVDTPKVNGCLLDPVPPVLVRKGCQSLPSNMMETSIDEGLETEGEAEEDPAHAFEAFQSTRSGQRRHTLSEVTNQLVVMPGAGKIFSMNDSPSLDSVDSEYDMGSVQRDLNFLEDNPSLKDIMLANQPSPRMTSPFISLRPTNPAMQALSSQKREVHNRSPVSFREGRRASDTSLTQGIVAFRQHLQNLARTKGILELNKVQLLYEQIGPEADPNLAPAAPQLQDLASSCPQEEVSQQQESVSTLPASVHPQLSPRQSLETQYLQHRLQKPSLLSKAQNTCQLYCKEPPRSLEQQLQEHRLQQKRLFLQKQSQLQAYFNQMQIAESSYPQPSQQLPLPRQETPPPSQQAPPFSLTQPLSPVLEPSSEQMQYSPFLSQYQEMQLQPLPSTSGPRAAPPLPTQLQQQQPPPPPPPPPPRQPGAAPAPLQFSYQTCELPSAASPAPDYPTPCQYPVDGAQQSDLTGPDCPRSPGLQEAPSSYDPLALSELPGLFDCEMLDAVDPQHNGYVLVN
# T14 sequence (Q9UBE8 whole entry): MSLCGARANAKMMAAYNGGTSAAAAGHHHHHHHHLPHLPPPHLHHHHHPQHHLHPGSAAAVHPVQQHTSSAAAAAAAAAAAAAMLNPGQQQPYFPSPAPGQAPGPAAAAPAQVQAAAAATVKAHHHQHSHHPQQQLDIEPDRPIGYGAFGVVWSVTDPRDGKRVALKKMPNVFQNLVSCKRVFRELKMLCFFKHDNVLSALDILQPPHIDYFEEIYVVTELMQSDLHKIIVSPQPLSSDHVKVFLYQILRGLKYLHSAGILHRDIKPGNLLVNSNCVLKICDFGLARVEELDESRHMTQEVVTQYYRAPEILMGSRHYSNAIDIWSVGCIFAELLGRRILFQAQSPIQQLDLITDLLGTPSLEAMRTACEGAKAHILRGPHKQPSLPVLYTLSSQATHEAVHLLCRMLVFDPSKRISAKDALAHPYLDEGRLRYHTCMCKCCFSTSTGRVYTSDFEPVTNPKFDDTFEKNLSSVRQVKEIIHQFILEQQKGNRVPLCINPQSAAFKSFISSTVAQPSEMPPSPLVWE
# T6 sequence (Q9UQM7 whole entry): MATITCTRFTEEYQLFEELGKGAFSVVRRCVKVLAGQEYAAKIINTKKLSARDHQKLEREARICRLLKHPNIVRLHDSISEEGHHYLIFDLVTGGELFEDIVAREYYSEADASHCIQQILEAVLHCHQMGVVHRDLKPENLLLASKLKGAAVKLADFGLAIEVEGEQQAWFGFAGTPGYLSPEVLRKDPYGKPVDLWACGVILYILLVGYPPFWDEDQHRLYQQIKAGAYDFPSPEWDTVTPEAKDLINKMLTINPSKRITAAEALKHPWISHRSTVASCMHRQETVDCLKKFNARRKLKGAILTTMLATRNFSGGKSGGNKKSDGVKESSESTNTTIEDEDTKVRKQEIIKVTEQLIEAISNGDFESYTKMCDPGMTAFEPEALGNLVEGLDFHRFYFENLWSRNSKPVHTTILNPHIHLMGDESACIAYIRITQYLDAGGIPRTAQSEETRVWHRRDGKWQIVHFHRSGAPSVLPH
structure (smiles),measurement,setting,value
Cc1cnc(N[C@H]2CC[C@H](N)CC2)nc1-c1cnc2ccc(-c3ccccc3)cn12 [CDDD11-8],remaining activity at 1 µM,FAK/PTK2,63.3%
same,remaining activity at 1 µM,CAMK1b,96.1%
same,remaining activity at 1 µM,FLT4/VEGFR3,23.3%
same,remaining activity at 1 µM,SIK2,35.8%
same,remaining activity at 1 µM,LIMK1,12.9%
same,remaining activity at 1 µM,CAMK2a,20.3%
same,remaining activity at 1 µM,CLK3,85.9%
same,remaining activity at 1 µM,SLK/STK2,89.8%
same,remaining activity at 1 µM,PKCiota,88.8%
same,remaining activity at 1 µM,CLK2,47%
same,remaining activity at 1 µM,ERK2/MAPK1,109%
same,remaining activity at 1 µM,Aurora B,89.6%
same,remaining activity at 1 µM,CDK4/cyclin D3,79.7%
same,remaining activity at 1 µM,NLK,83.4%
same,remaining activity at 1 µM,CK2a2,74.7%
same,remaining activity at 1 µM,CDC7/DBF4,109%
same,remaining activity at 1 µM,PKAcb,89.6%
same,remaining activity at 1 µM,FGR,73.4%
same,remaining activity at 1 µM,DAPK1,96.1%
same,remaining activity at 1 µM,LCK2/ICK,62.4%
same,remaining activity at 1 µM,RSK3,45.6%
same,remaining activity at 1 µM,ERN2/IRE2,45.4%
same,remaining activity at 1 µM,MKK4,75.6%
same,remaining activity at 1 µM,STK39/STLK3,45.7%
same,remaining activity at 1 µM,DYRK4,93.6%
same,remaining activity at 1 µM,OSR1/OXSR1,101%
same,remaining activity at 1 µM,KSR2,101%
same,remaining activity at 1 µM,LATS2,30.2%
same,remaining activity at 1 µM,FGFR1,96.8%
same,remaining activity at 1 µM,PKG1a,61.7%

# Source: publication PMC8909834, “An Orally Bioavailable and Highly Efficacious Inhibitor of CDK9/FLT3 for the Treatment of Acute Myeloid Leukemia” (Cancers, 2022)
